# From patent US11478558B2, “Prostate-specific membrane antigen targeted high-affinity agents for endoradiotherapy of prostate cancer” (The Johns Hopkins University, priority 2017, dated 2022)
# Columns and labels:
# PSMA(+) PC3 PIP cells = test: Cell uptake, cell surface binding and internalization in PSMA(+) PC3 PIP cells; type: cell-based, human
# [1] = tested on: PSMA(+) PC3 PIP and PSMA(−) PC3 flu tumor xenografts; test: Biodistribution of 177Lu compounds (Example 5)
# PSMA+ PC3 PIP tumors = test: Radiopharmaceutical therapy in PC3 PIP flank tumor growth delay model; type: in vivo, NOD/SCID mice; conditions: 111 MBq, n=10
# Method: A pilot treatment study using NOD/SCID mice (n=10 per group) bearing PSMA+ PC3 PIP tumors with a single intravenous dose of 111 MBq (3 mCi) of agents ^177Lu-PSMA-617, ^177Lu-1, ^177Lu-3 and ^177Lu-5 and the control group (with saline treatment) were performed (Table 8). Volume of the all control group mice reached >5-fold of their initial tumor volume within 14 days. Mouse euthanized for treated group within 4 weeks of post-injection was mainly due to sudden body weight loss and not related to tumor growth. […] The difference among treatment groups was statistically significant (P=0.002) by the log-rank test compared to the untreated group. […] After 8-weeks, three mice from each treated group were used for detailed blood analysis and necropsy study. All animals underwent radiotherapy study had normal creatinine (0.3-0.4 mg/dL) and blood urea nitrogen levels. […] Additionally, a significant lowering of platelet for all three treated mice from ^177Lu-PSMA-617 compared control group and other treated groups.
# Median survival for the ^177Lu-PSMA-617 was 133 days vs. 234 days for ^177Lu-1.
# The remaining treated mice survived tumor-free for 10 months and were evaluated for toxicity.
# Antitumor efficacy studies were performed in PC3 PIP flank tumor growth delay model to evaluate the therapeutic efficacy of a single dose intravenous injection of ^177Lu-L1, ^177Lu-L3, ^177Lu-L5 and ^177Lu-PSMA-617 vs. saline. This was a head-to-head comparison study and same batch of tumor-bearing mice and radioactivity. The study was commenced 14-18 days post-inoculation of the xenografts, when all the mice had tumor volume of about ˜60-85 mm^3 (Table 8). All the living mice were monitored for 8 weeks to monitor the growth delay. Mice body weight and tumor volume were monitored every 3 days throughout the experiment. Endpoint criteria defined by the institute ACUC was weight loss≥15%, a tumor volume>1800 mm^3, active ulceration of the tumor or abnormal behavior indicating pain or unease. After 8-weeks, three mice from each group were submitted for detail necropsy and blood analysis. Mice group treated with ^177Lu-1 and ^177Lu-PSMA-617 were continued to monitor until the endpoint. These definitions were also used for Kaplan-Meier analysis. The probability of reaching 5 times the initial tumor volume was characterized using Kaplan-Meier curves, and comparison was performed using the log-rank test. The formula used for calculation of tumor volume was V=width^2×length/2. Toxicity of the ^177Lu-treatment groups after 8-weeks and in healthy CD-1 (n=3) mice treated with 111 MBq was evaluated by pathologic examination at the Johns Hopkins Pathology Core facility with serum metabolic panel, blood counts, and full necropsy including detailed histopathology of kidneys, salivary glands and lacrimal glands.
# PSMA+ PC3 PIP cells = test: Clonogenic cell survival assay in PSMA+ PC3 PIP cells; type: cell-based, human
# PSMA = PSMA (Homo sapiens (Human), UniProt Q04609); test: PSMA binding affinity
# Chain of PSMA (Q04609 whole entry): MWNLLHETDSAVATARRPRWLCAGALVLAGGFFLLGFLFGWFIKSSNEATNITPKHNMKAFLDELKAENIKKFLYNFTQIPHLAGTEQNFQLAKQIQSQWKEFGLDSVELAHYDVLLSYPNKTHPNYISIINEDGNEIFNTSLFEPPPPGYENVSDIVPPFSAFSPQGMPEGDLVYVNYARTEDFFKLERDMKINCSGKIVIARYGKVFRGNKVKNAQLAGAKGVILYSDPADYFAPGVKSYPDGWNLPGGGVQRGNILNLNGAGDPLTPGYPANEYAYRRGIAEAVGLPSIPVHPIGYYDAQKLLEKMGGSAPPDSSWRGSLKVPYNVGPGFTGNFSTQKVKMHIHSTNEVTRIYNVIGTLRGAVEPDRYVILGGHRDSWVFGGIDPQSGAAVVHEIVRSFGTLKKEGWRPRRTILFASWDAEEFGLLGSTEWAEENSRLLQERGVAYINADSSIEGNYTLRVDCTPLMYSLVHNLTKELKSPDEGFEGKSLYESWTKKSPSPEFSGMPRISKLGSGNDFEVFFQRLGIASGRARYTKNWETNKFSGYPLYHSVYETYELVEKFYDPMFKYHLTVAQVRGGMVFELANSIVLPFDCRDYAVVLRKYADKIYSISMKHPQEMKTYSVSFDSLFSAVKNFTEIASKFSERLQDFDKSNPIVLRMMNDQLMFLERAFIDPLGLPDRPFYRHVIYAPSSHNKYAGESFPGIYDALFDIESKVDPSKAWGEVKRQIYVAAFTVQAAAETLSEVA
# [2] = Octanol/water partition coefficient; type: physicochemical; conditions: Table 1
smiles,measurement,setting,value
O=C([O-])CN1CCN(CC(=O)[O-])CCN(CC(=O)O)C(Cc2ccc(NC(=S)NCCCCC(=O)N(CCCC[C@H](NC(=O)N[C@@H](CCC(=O)O)C(=O)O)C(=O)O)Cc3ccc(Br)cc3)cc2)CN(CC(=O)[O-])CC1.[177Lu+3] (some centres unmarked) [^177Lu-L8],fold higher internalization compared to 177Lu-7,PSMA(+) PC3 PIP cells; all time-points up to 24 h,> 1.5 fold
same,PSMA(+) PC3 PIP tumor uptake,[1]; 2 h,55.4±7.2 % ID/g
same,PSMA(+) PC3 PIP tumor uptake,[1]; 24 h post-injection,40.6±7.0 % ID/g
same,PSMA(+) PC3 PIP tumor uptake,[1]; 48 h,27.0±7.0 % ID/g
same,PSMA(+) PC3 PIP tumor uptake,"[1]; fourth time point, time not given",24.9±2.3 % ID/g
same,mice with tumor growth with relative volume>5 after 8 weeks,PSMA+ PC3 PIP tumors,only two mice
same,tumor-free survival of remaining treated mice,PSMA+ PC3 PIP tumors,10 months
same,unexpected death of mice (used for SPECT/CT imaging),PSMA+ PC3 PIP tumors,three mice
same,D0 (37% survival),PSMA+ PC3 PIP cells; 48 h incubation,0.3-0.6 μCi/mL
same,Cell surviving fraction,PSMA+ PC3 PIP cells; incubated for 2 h and 24 h,> 0.8
"O=C(O)CC[C@H](NC(=O)N[C@@H](CCCCN(Cc1ccc(I)cc1)C(=O)CCCCCNC(=O)c1ccc(CNC(=O)CN2CCN(CC(=O)O)CCN(CC(=O)O)CCN(CC(=O)O)CC2)cc1)C(=O)O)C(=O)O [Ligand L4, (14S,18S)-9-(4-Iodobenzyl)-1,8,16-trioxo-1-(4-((2-(4,7,10-tris(carboxymethyl)-1,4,7,10-tetraazacyclododecan-1-yl)acetamido)methyl)phenyl)-2,9,15,17-tetraazaicosane-14,18,20-tricarboxylic acid]",Ki,"PSMA; Table 6, given as range",0.14 to 0.39 nM
"O=C(O)CC[C@H](NC(=O)N[C@@H](CCCCN(Cc1ccc(Br)nc1)C(=O)CCCCNC(=O)CN1CCN(CC(=O)O)CCN(CC(=O)O)CCN(CC(=O)O)CC1)C(=O)O)C(=O)O [Ligand L13, (14S,18S)-9-((6-Bromopyridin-3-yl)methyl)-2,8,16-trioxo-1-(4,7,10-tris(carboxymethyl)-1,4,7,10-tetraazacyclododecan-1-yl)-3,9,15,17-tetraazaicosane-14,18,20-tricarboxylic acid]",Ki,"PSMA; Table 6, given as range",0.23 to 8.1 nM
"O=C(O)CC[C@H](NC(=O)N[C@@H](CCCCN(Cc1ccc(I)cc1)C(=O)CCCCNC(=O)CN1CCN(CC(=O)O)CCN(CC(=O)O)CCN(CC(=O)O)CC1)C(=O)O)C(=O)O [Ligand L2, (14S,18S)-9-(4-iodobenzyl)-2,8,16-trioxo-1-(4,7,10-tris(carboxymethyl)-1,4,7,10-tetraazacyclododecan-1-yl)-3,9,15,17-tetraazaicosane-14,18,20-tricarboxylic acid]",Specific Cell Surface Binding,PSMA(+) PC3 PIP cells,29.23 ± 0.80 % IA/10^6 cells
same,specific internalization,PSMA(+) PC3 PIP cells,24.96 ± 0.90 % IA/10^6 cells
same,Ki,"PSMA; Table 6, given as range",0.2 to 0.33 nM
"O=C(O)CC[C@H](NC(=O)N[C@@H](CCCCN(Cc1ccc(Br)cc1)C(=O)CCCCCNC(=O)c1ccc(CNC(=O)CN2CCN(CC(=O)O)CCN(CC(=O)O)CCN(CC(=O)O)CC2)cc1)C(=O)O)C(=O)O [Ligand L3, (14S,18S)-9-(4-Bromobenzyl)-1,8,16-trioxo-1-(4-((2-(4,7,10-tris(carboxymethyl)-1,4,7,10-tetraazacyclododecan-1-yl)acetamido)methyl)phenyl)-2,9,15,17-tetraazaicosane-14,18,20-tricarboxylic acid]",Specific Cell Surface Binding,PSMA(+) PC3 PIP cells,36.65 ± 0.50 % IA/10^6 cells
same,specific internalization,PSMA(+) PC3 PIP cells,22.03 ± 0.60 % IA/10^6 cells
same,Ki,"PSMA; Table 6, given as range",0.09 to 34 nM
"O=C(O)CC[C@H](NC(=O)N[C@@H](CCCCN(Cc1ccc(Br)cc1)C(=O)CCCCNC(=S)Nc1ccc(CC2CN(CC(=O)O)CCN(CC(=O)O)CCN(CC(=O)O)CCN2CC(=O)O)cc1)C(=O)O)C(=O)O (stereo partly drawn) [Ligand L8, (13S,17S)-8-(4-bromobenzyl)-7,15-dioxo-1-((4-((1,4,7,10-tetrakis(carboxymethyl)-1,4,7,10-tetraazacyclododecan-2-yl)methyl)phenyl)amino)-1-thioxo-2,8,14,16-tetraazanonadecane-13,17,19-tricarboxylic acid]",specific internalization,PSMA(+) PC3 PIP cells,20.06 % IA/10^6 cells
same,Ki,"PSMA; Table 6, given as range",0.08 to 0.16 nM
"O=C(O)CC[C@H](NC(=O)N[C@@H](CCCCN(Cc1ccc(Br)cc1)C(=O)CCCCNC(=S)Nc1ccc(CC2CN(CC(=O)O)CCN(CC(=O)O)CCN(CC(=O)O)CCN2CC(=O)O)cc1)C(=O)O)C(=O)O (stereo partly drawn) [Ligand 1, (13S,17S)-8-(4-bromobenzyl)-7,15-dioxo-1-((4-((1,4,7,10-tetrakis(carboxymethyl)-1,4,7,10-tetraazacyclododecan-2-yl)methyl)phenyl)amino)-1-thioxo-2,8,14,16-tetraazanonadecane-13,17,19-tricarboxylic acid]",LogPoct/water,[2],−3.0
"O=C(O)CC[C@H](NC(=O)N[C@@H](CCCCN(Cc1ccc(Br)cc1)C(=O)c1ccc(CNC(=O)CN2CCN(CC(=O)O)CCN(CC(=O)O)CCN(CC(=O)O)CC2)cc1)C(=O)O)C(=O)O [Ligand L12, (((S)-5-(N-(4-Bromobenzyl)-4-((2-(4,7,10-tris(carboxymethyl)-1,4,7,10-tetraazacyclododecan-1-yl)acetamido)methyl)benzamido)-1-carboxypentyl)carbamoyl)-L-glutamic acid]",Ki,"PSMA; Table 6, given as range",0.22 to 4.03 nM
"O=C(O)CC[C@H](NC(=O)N[C@@H](CCCCN(Cc1ccc(Br)cc1)C(=O)CCCCNC(=O)CCC(C(=O)O)N1CCN(CC(=O)O)CCN(CC(=O)O)CCN(CC(=O)O)CC1)C(=O)O)C(=O)O (stereo partly drawn) [Ligand L9, (3S,7S)-12-(4-Bromobenzyl)-5,13,19-trioxo-22-(4,7,10-tris(carboxymethyl)-1,4,7,10-tetraazacyclododecan-1-yl)-4,6,12,18-tetraazadocosane-1,3,7,22-tetracarboxylic acid]",specific internalization,PSMA(+) PC3 PIP cells,7.80 % IA/10^6 cells
same,Ki,"PSMA; Table 6, given as range",0.02 to 0.05 nM
"O=C(O)CC[C@H](NC(=O)N[C@@H](CCCCNC(=O)CCCCNC(=S)Nc1ccc(CC2CN(CC(=O)O)CCN(CC(=O)O)CCN(CC(=O)O)CCN2CC(=O)O)cc1)C(=O)O)C(=O)O (stereo partly drawn) [Ligand 3, (13S,17S)-7,15-dioxo-1-((4-((1,4,7,10-tetrakis(carboxymethyl)-1,4,7,10-tetraazacyclododecan-2-yl)methyl)phenyl)amino)-1-thioxo-2,8,14,16-tetraazanonadecane-13,17,19-tricarboxylic acid]",IC50,PSMA; Table 1,2.16 nM
same,Ki,PSMA; Table 1,0.43 nM
same,LogPoct/water,[2],−3.2
"O=C(O)CC[C@H](NC(=O)N[C@@H](CCCCN(Cc1ccc(Br)cc1)C(=O)CCCCNC(=O)CN1CCN(CC(=O)O)CCN(CC(=O)O)CCN(CC(=O)O)CC1)C(=O)O)C(=O)O [Ligand 2, (14S,18S)-9-(4-Bromobenzyl)-2,8,16-trioxo-1-(4,7,10-tris(carboxymethyl)-1,4,7,10-tetraazacyclododecan-1-yl)-3,9,15,17-tetraazaicosane-14,18,20-tricarboxylic acid]",IC50,PSMA; Table 1,0.64 nM
same,Ki,PSMA; Table 1,1.28 nM
same,LogPoct/water,[2],−3.53
"O=C(O)CC[C@H](NC(=O)N[C@@H](CCCCN(Cc1ccc(Br)cc1)C(=O)CCCCCCC(=O)NCCCCNC(=O)c1ccc(CNC(=O)CN2CCN(CC(=O)O)CCN(CC(=O)O)CCN(CC(=O)O)CC2)cc1)C(=O)O)C(=O)O [Ligand L5, (21S,25S)-16-(4-Bromobenzyl)-1,8,15,23-tetraoxo-1-(4-((2-(4,7,10-tris(carboxymethyl)-1,4,7,10-tetraazacyclododecan-1-yl)acetamido)methyl)phenyl)-2,7,16,22,24-pentaazaheptacosane-21,25,27-tricarboxylic acid]",Specific Cell Surface Binding,PSMA(+) PC3 PIP cells,36.65 ± 0.50 % IA/10^6 cells
same,specific internalization,PSMA(+) PC3 PIP cells,22.03 ± 0.60 % IA/10^6 cells
same,Ki,"PSMA; Table 6, given as range",0.46 to 0.63 nM
O=C([O-])CN1CCN(CC(=O)[O-])CCN(CC(=O)NCCCCC(=O)N(CCCC[C@H](NC(=O)N[C@@H](CCC(=O)O)C(=O)O)C(=O)O)Cc2ccc(Br)cc2)CCN(CC(=O)[O-])CC1.[Lu+3] [Lu-L1],fold improvement in binding affinity over L1,PSMA,3 fold
"O=C(O)CC[C@H](NC(=O)N[C@@H](CCCCN(Cc1ccc(I)cc1)C(=O)CCCCCCC(=O)NCCCCNC(=O)c1ccc(CNC(=O)CN2CCN(CC(=O)O)CCN(CC(=O)O)CCN(CC(=O)O)CC2)cc1)C(=O)O)C(=O)O [Ligand L6, (21S,25S)-16-(4-Iodobenzyl)-1,8,15,23-tetraoxo-1-(4-((2-(4,7,10-tris(carboxymethyl)-1,4,7,10-tetraazacyclododecan-1-yl)acetamido)methyl)phenyl)-2,7,16,22,24-pentaazaheptacosane-21,25,27-tricarboxylic acid]",Ki,"PSMA; Table 6, given as range",0.35 to 0.93 nM
